The record followed here is patent US11142515B2, “Pyrazolyl-ureas as kinase inhibitors” (RESPIVERT LIMITED, priority 2014, dated 2021).

The target in one series is T1, c-Src (Homo sapiens, UniProt P12931).
T1 construct: purchased Life Technologies
The experiment in a line: c-Src enzyme inhibition (Z-LYTE FRET). Particulars: Table 2A. The class given is biochemical. The method in brief:
(§1)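 Enzyme (1000, 1400 or 2000 ng/mL stocks for c-Src, Hck, Syk respectively) preincubated 2 h at RT with compound (0.0012–40 μg/mL series), then FRET peptide plus ATP (800 μM c-Src; 60 μM Hck, Syk stocks) for 1 h. Protease development 1 h; phosphorylation from coumarin/fluorescein emission ratio.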

In a further series the target is T2, Syk (Homo sapiens, UniProt P43405).
T2 construct: purchased Life Technologies
Nature of the series: Syk enzyme inhibition (Z-LYTE FRET). The conditions noted are these: Table 2A. It is filed as biochemical. The method in brief: as §1

A further series concerns the target T3, p38MAPKγ (MAPK12) (Homo sapiens, UniProt P53778).
T3 construct: purchased Life Technologies
T3 sequence (P53778 1-367): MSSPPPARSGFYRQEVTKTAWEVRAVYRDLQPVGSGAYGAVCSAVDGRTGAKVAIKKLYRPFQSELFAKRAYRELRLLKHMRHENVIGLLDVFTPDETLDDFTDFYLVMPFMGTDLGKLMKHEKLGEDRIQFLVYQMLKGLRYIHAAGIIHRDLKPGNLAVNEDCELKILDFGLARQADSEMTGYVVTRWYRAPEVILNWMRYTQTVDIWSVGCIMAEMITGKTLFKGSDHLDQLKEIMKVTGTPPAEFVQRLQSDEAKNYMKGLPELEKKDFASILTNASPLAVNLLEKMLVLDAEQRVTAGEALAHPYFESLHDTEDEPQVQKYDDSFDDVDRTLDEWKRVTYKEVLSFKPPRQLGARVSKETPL
Nature of the series: p38 MAPKγ enzyme inhibition (Z-LYTE FRET). It is filed as biochemical. Particulars: Table 2A; read-out: IC50 Values for Enzyme Inhibition p38 MAPKγ. The gist of the method:
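Z-LYTE read-out: after 1 h protease development, only non-phosphorylated peptide is cleaved, and the donor/acceptor (coumarin/fluorescein) ratio reports phosphorylation. Beforehand, enzyme and compound (stock concentrations 0.0012–40 μg/mL) were preincubated 2 h at RT, then the kinase reaction ran 1 h at RT with peptide and ATP (8 μM and 400 μM stocks).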

Series [1] relates to ICAM-1 expression in BEAS2B cells. Nature of the series: Poly I:C-induced ICAM-1 expression in BEAS2B cells. The class given is cell-based. Particulars: Homo sapiens, BEAS-2B, read-out: PolyIC/ICAM1 IC50 (BEAS2B). The method in brief:
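Human bronchial epithelial BEAS2B cells pre-treated 2 h with compound, then transfected with Poly I:C (1 μg/mL) via Oligofectamine. After 18 h, surface ICAM-1 measured by cell-based ELISA (OD450-655), normalized to crystal violet cell number (OD595); inhibition calculated against vehicle control.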

A further series deals with d-U937 cells. Nature of the series: Cell viability: MTT assay in differentiated U937 cells. It is filed as cell-based, human. Particulars: 10 μg/mL. The gist of the method:
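Differentiated U937 cells exposed to compound at a final 10 μg/mL, either 4 h in 5% FCS RPMI1640 or 24 h in 10% FCS RPMI1640. MTT added for 1 h, formazan dissolved in DMSO, absorbance read at 550 nm; % viability loss relative to 0.5% DMSO vehicle, with increases shown as negative values.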

A further series addresses T4, Hck (Homo sapiens, UniProt P08631).
T4 construct: purchased Life Technologies
The experiment in a line: Hck enzyme inhibition (Z-LYTE FRET). The class given is biochemical. The conditions noted are these: Table 2A. The method in brief:
as §1

T4 sequence (P08631 22-526): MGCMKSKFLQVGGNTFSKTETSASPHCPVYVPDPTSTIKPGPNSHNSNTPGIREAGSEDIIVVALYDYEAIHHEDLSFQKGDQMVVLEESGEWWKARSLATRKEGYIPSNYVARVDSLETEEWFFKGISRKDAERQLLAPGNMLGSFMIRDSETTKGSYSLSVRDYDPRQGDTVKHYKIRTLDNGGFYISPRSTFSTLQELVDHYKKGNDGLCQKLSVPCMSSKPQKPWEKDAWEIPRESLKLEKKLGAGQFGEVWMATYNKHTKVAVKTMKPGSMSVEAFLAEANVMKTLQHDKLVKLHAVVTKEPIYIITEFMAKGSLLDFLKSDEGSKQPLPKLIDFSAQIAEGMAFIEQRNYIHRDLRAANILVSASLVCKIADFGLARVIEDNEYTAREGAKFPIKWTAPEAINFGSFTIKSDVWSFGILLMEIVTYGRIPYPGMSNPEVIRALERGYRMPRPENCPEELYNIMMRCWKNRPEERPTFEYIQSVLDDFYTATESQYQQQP
T1 sequence (P12931 whole entry): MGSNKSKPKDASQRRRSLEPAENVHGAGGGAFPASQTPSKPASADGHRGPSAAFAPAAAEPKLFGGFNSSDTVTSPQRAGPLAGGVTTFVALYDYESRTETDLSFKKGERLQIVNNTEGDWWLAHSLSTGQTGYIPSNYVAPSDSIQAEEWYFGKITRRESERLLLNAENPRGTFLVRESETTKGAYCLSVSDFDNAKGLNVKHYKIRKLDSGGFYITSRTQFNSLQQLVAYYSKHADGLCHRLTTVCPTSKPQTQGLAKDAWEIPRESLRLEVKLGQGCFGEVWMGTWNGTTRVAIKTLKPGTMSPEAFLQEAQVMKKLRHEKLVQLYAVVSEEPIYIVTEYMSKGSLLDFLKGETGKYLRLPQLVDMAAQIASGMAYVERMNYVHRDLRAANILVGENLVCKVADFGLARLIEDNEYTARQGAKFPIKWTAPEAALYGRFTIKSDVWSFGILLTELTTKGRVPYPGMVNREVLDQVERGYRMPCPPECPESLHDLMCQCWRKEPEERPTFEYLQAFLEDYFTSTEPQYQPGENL

`CCc1cnc(Nc2cc(COc3ccc(NC(=O)Nc4cc(C(C)(C)C)nn4-c4ccc(C)cc4)c4ccccc34)ccn2)cn1` [Example 37]: the IC50 at c-Src is 512 nM; at Syk, above 16000 nM; on p38MAPKγ (MAPK12), 569 nM; in series [1] it was 611 nM; on Hck, 142 nM. Besides, in the series with d-U937 cells, the “MTT Assay Cell viability at time point indicated in d-U937 Cells, 4 h” value (“MTT Assay Cell viability … in d-U937 Cells, 4 h” below) is “− (−ve and +ve indicate the value is below and above, respectively, the no significant effect threshold defined as 30% inhibition at 10 μg/mL at the time point indicated)”. The “MTT Assay Cell viability at time point indicated in d-U937 Cells, 24 h” value (shortened to “MTT Assay Cell viability … 24 h”) in the series on d-U937 cells was “− (−ve and +ve indicate the value is below and above, respectively, the no significant effect threshold defined as 30% inhibition at 10 μg/mL at the time point indicated)”.

In the case of `COc1ccc(-n2nc(C(C)(C)C)cc2NC(=O)Nc2ccc(OCc3ccnc(Nc4cnccn4)c3)c3ccccc23)cc1` [Example 38], the IC50 is 153 nM on c-Src; above 16300 nM against Syk; above 16300 nM at p38MAPKγ (MAPK12); 75.5 nM in series [1]; 60 nM at Hck. Moreover, the “MTT Assay Cell viability … in d-U937 Cells, 4 h” value in the series on d-U937 cells was “− (−ve and +ve indicate the value is below and above, respectively, the no significant effect threshold defined as 30% inhibition at 10 μg/mL at the time point indicated)”. In the series on d-U937 cells, the “MTT Assay Cell viability … 24 h” value was “− (−ve and +ve indicate the value is below and above, respectively, the no significant effect threshold defined as 30% inhibition at 10 μg/mL at the time point indicated)”.

As to `COc1ccc(-n2nc(C(C)(C)C)cc2NC(=O)Nc2ccc(OCc3ccnc(Nc4cnccn4)c3)c3ccccc23)cc1C` [Example 39], the IC50 on c-Src is 82 nM; against Syk it was above 15900 nM; on p38MAPKγ (MAPK12) it was 310 nM; in series [1], 46.6 nM; on Hck, 31 nM. The “MTT Assay Cell viability … in d-U937 Cells, 4 h” value in the series with d-U937 cells is “− (−ve and +ve indicate the value is below and above, respectively, the no significant effect threshold defined as 30% inhibition at 10 μg/mL at the time point indicated)”. Also, the “MTT Assay Cell viability … 24 h” value in the series on d-U937 cells is “− (−ve and +ve indicate the value is below and above, respectively, the no significant effect threshold defined as 30% inhibition at 10 μg/mL at the time point indicated)”.

Consider `Cc1cccc(-n2nc(C(C)(C)C)cc2NC(=O)Nc2ccc(OCc3ccnc(Nc4cnccn4)c3)c3ccccc23)c1` [Example 40], for which the IC50 was 85 nM against c-Src; above 16700 nM on Syk; 79 nM at p38MAPKγ (MAPK12); 637 nM in series [1]; 23 nM against Hck. Moreover, the “MTT Assay Cell viability … in d-U937 Cells, 4 h” value in the series on d-U937 cells was “− (−ve and +ve indicate the value is below and above, respectively, the no significant effect threshold defined as 30% inhibition at 10 μg/mL at the time point indicated)”. In the series on d-U937 cells, the “MTT Assay Cell viability … 24 h” value is “− (−ve and +ve indicate the value is below and above, respectively, the no significant effect threshold defined as 30% inhibition at 10 μg/mL at the time point indicated)”.

As to `CC(C)c1ccc(-n2nc(C(C)(C)C)cc2NC(=O)Nc2ccc(OCc3ccnc(Nc4cnccn4)c3)c3ccccc23)cc1` [Example 41], the IC50 on c-Src was 11000 nM; against Syk it was 6130 nM; at p38MAPKγ (MAPK12) it was above 16000 nM; in series [1] it was above 1600 nM; at Hck it was 1430 nM. The “MTT Assay Cell viability … in d-U937 Cells, 4 h” value in the series with d-U937 cells was “− (−ve and +ve indicate the value is below and above, respectively, the no significant effect threshold defined as 30% inhibition at 10 μg/mL at the time point indicated)”. Besides, the “MTT Assay Cell viability … 24 h” value in the series with d-U937 cells is “− (−ve and +ve indicate the value is below and above, respectively, the no significant effect threshold defined as 30% inhibition at 10 μg/mL at the time point indicated)”.

Regarding `CCc1ccc(-n2nc(C(C)(C)C)cc2NC(=O)Nc2ccc(OCc3ccnc(Nc4cnccn4)c3)c3ccccc23)cc1` [Example 42], the IC50 against c-Src is 543 nM; at Syk it was above 16300 nM; on p38MAPKγ (MAPK12), 521 nM; in series [1] it was 197 nM; against Hck, 89 nM. In addition, the “MTT Assay Cell viability … in d-U937 Cells, 4 h” value in the series on d-U937 cells was “− (−ve and +ve indicate the value is below and above, respectively, the no significant effect threshold defined as 30% inhibition at 10 μg/mL at the time point indicated)”. For the same compound, in the series on d-U937 cells, the “MTT Assay Cell viability … 24 h” value was “− (−ve and +ve indicate the value is below and above, respectively, the no significant effect threshold defined as 30% inhibition at 10 μg/mL at the time point indicated)”.

Take `COCCNC(=O)c1cnc(Nc2cc(COc3ccc(NC(=O)Nc4cc(C(C)(C)C)nn4-c4ccc(C)s4)c4ccccc34)ccn2)cn1` [Example 43]: the IC50 is 73 nM on c-Src; above 14200 nM at Syk; 394 nM at p38MAPKγ (MAPK12); above 1420 nM in series [1]; 53 nM against Hck. In addition, in the series on d-U937 cells, the “MTT Assay Cell viability … in d-U937 Cells, 4 h” value is “− (−ve and +ve indicate the value is below and above, respectively, the no significant effect threshold defined as 30% inhibition at 10 μg/mL at the time point indicated)”. Also, the “MTT Assay Cell viability … 24 h” value in the series with d-U937 cells is “− (−ve and +ve indicate the value is below and above, respectively, the no significant effect threshold defined as 30% inhibition at 10 μg/mL at the time point indicated)”.

For `COCCNC(=O)c1cnc(Nc2cc(COc3ccc(NC(=O)Nc4cc(C(C)(C)C)nn4-c4csc(C)c4)c4ccccc34)ccn2)cn1` [Example 44], the IC50 on c-Src was 233 nM; against Syk, above 14200 nM; at p38MAPKγ (MAPK12), 454 nM; in series [1], 1150 nM; at Hck, 58 nM. Moreover, the “MTT Assay Cell viability … in d-U937 Cells, 4 h” value in the series with d-U937 cells is “− (−ve and +ve indicate the value is below and above, respectively, the no significant effect threshold defined as 30% inhibition at 10 μg/mL at the time point indicated)”. Besides, in the series with d-U937 cells, the “MTT Assay Cell viability … 24 h” value was “+ (−ve and +ve indicate the value is below and above, respectively, the no significant effect threshold defined as 30% inhibition at 10 μg/mL at the time point indicated)”.

Regarding `CC(C)(C)c1cc(NC(=O)Nc2ccc(OCc3ccnc(Nc4cnccn4)c3)c3ccccc23)n(-c2ccc(Cl)cc2)n1` [Example 45], the IC50 is 7890 nM against c-Src; above 16200 nM against Syk; above 16200 nM at p38MAPKγ (MAPK12); 1440 nM in series [1]; 2240 nM on Hck. Also, in the series on d-U937 cells, the “MTT Assay Cell viability … in d-U937 Cells, 4 h” value was “− (−ve and +ve indicate the value is below and above, respectively, the no significant effect threshold defined as 30% inhibition at 10 μg/mL at the time point indicated)”. In addition, in the series with d-U937 cells, the “MTT Assay Cell viability … 24 h” value was “− (−ve and +ve indicate the value is below and above, respectively, the no significant effect threshold defined as 30% inhibition at 10 μg/mL at the time point indicated)”.

`COc1ccc(-n2nc(C(C)(C)C)cc2NC(=O)Nc2ccc(OCc3ccnc(Nc4cnccn4)c3)c3ccccc23)cc1Cl` [Example 46]: the IC50 is 385 nM against c-Src; 6700 nM against Syk; 1950 nM at p38MAPKγ (MAPK12); 212 nM in series [1]; 68 nM against Hck. Further, the “MTT Assay Cell viability … in d-U937 Cells, 4 h” value in the series with d-U937 cells is “− (−ve and +ve indicate the value is below and above, respectively, the no significant effect threshold defined as 30% inhibition at 10 μg/mL at the time point indicated)”. In the series with d-U937 cells, the “MTT Assay Cell viability … 24 h” value is “− (−ve and +ve indicate the value is below and above, respectively, the no significant effect threshold defined as 30% inhibition at 10 μg/mL at the time point indicated)”.

As for `Cc1ccc(-n2nc(C(C)(C)C)cc2NC(=O)Nc2ccc(OCc3ccnc(Nc4cncc(C5CCC5)n4)c3)c3ccccc23)cc1` [Example 47], the IC50 at c-Src turned out to be 402 nM; at Syk it was 4150 nM; on p38MAPKγ (MAPK12), 473 nM; in series [1], 151 nM; at Hck it was 110 nM. In the series on d-U937 cells, the “MTT Assay Cell viability … in d-U937 Cells, 4 h” value is “− (−ve and +ve indicate the value is below and above, respectively, the no significant effect threshold defined as 30% inhibition at 10 μg/mL at the time point indicated)”. The “MTT Assay Cell viability … 24 h” value in the series with d-U937 cells was “− (−ve and +ve indicate the value is below and above, respectively, the no significant effect threshold defined as 30% inhibition at 10 μg/mL at the time point indicated)”.
